PubChem BioAssay (NCI)
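1) Cells in 96-well plates. 2) Compound, 48 h, 5 concentrations. 3) Linear interpolation between surrounding doses. 4) Unreached endpoint = highest concentration. Definition used: TGI = concentration required for complete inhibition of growth.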

How the values were obtained:
Test in all cases: NCI-60 cell line screen, 48 h
[1] = test system: CAKI-1 renal
[2] = test system: COLO 205 colon
[3] = test system: DU-145 prostate
[4] = test system: HOP-62 NSCLC
[5] = test system: HS 578T breast
[6] = test system: IGROV1 ovarian
[7] = test system: K-562 leukemia
[8] = test system: KM12 colon
[9] = test system: MALME-3M melanoma
[10] = test system: MDA-MB-231 breast
[11] = test system: OVCAR-3 ovarian
[12] = test system: OVCAR-5 ovarian
[13] = test system: OVCAR-8 ovarian
[14] = test system: SK-OV-3 ovarian
[15] = test system: SNB-75 CNS
[16] = test system: UO-31 renal
[17] = test system: LOX IMVI melanoma
[18] = test system: RPMI-8226 leukemia

## O=c1[nH]c2ccc([N+](=O)[O-])cc2nc1/C=C(\O)c1ccccc1
[1]
  TGI: 62 µM
[2]
  TGI: > 100 µM
[3]
  TGI: > 100 µM
[4]
  TGI: 22.1 µM
[5]
  TGI: 8.93 µM
[6]
  TGI: > 100 µM
[7]
  TGI: > 100 µM
[8]
  TGI: > 100 µM
[9]
  TGI: > 100 µM
[10]
  TGI: 15.3 µM
[11]
  TGI: 99.2 µM
[12]
  TGI: > 100 µM
[13]
  TGI: 49.4 µM
[14]
  TGI: 33.7 µM
[15]
  TGI: 58.3 µM
[16]
  TGI: > 100 µM

## O=C1CC(c2ccccc2)S(=O)c2ccccc2N1 (configuration not stated)
[1]
  TGI: > 100 µM
[2]
  TGI: > 100 µM
[3]
  TGI: > 100 µM
[4]
  TGI: > 100 µM
[5]
  TGI: > 100 µM
[6]
  TGI: > 100 µM
[7]
  TGI: > 100 µM
[8]
  TGI: > 100 µM
[17]
  TGI: > 100 µM
[9]
  TGI: > 100 µM
[10]
  TGI: > 100 µM
[11]
  TGI: > 100 µM
[12]
  TGI: > 100 µM
[13]
  TGI: > 100 µM
[18]
  TGI: > 100 µM
[14]
  TGI: > 100 µM
[15]
  TGI: > 100 µM
[16]
  TGI: > 100 µM

## Cc1ccc(/C=C2\N=C(N3CCCC(CO)C3)NC2=O)cc1 (configuration not stated)
[1]
  TGI: > 100 µM
[2]
  TGI: > 100 µM
[3]
  TGI: > 100 µM
[4]
  TGI: > 100 µM
[5]
  TGI: > 100 µM
[6]
  TGI: > 100 µM
[7]
  TGI: > 100 µM
[8]
  TGI: > 100 µM
[17]
  TGI: > 100 µM
[9]
  TGI: > 100 µM
[10]
  TGI: > 100 µM
[11]
  TGI: > 100 µM
[12]
  TGI: > 100 µM
[13]
  TGI: > 100 µM
[18]
  TGI: > 100 µM
[14]
  TGI: > 100 µM
[15]
  TGI: > 100 µM
[16]
  TGI: > 100 µM

## CCNC(=S)N/N=C(\C)c1cccc(C)n1
[2]
  TGI: > 100 µM
[3]
  TGI: 73.1 µM
[4]
  TGI: > 100 µM
[5]
  TGI: > 100 µM
[6]
  TGI: > 100 µM
[7]
  TGI: > 100 µM
[8]
  TGI: > 100 µM
[17]
  TGI: > 100 µM
[9]
  TGI: > 100 µM
[10]
  TGI: > 100 µM
[11]
  TGI: > 100 µM
[12]
  TGI: > 100 µM
[13]
  TGI: > 100 µM
[14]
  TGI: > 100 µM
[15]
  TGI: > 100 µM
[16]
  TGI: > 100 µM

## CC1(C)CC(=O)C2=C(C1)OC1(CC2c2ccc(Cl)cc2)CC(c2ccc(Cl)cc2)C2=C(CC(C)(C)CC2=O)O1 (configuration not stated)
[1]
  TGI: 52.3 µM
[2]
  TGI: 36.6 µM
[3]
  TGI: 46.4 µM
[4]
  TGI: 34.2 µM
[5]
  TGI: 36.1 µM
[6]
  TGI: 33.4 µM
[7]
  TGI: > 51.3 µM
[8]
  TGI: 40.6 µM
[17]
  TGI: 64.2 µM
[9]
  TGI: 30.1 µM
[10]
  TGI: 50.3 µM
[11]
  TGI: 23.5 µM
[12]
  TGI: > 79.1 µM
[13]
  TGI: 87.5 µM
[18]
  TGI: 28.5 µM
[14]
  TGI: 29.4 µM
[15]
  TGI: 37.1 µM
[16]
  TGI: 30.7 µM

## COC(=O)C(NC(=O)OC(C)(C)C)P(=O)(OC)OC (configuration not stated)
[1]
  TGI: > 100 µM
[2]
  TGI: > 100 µM
[3]
  TGI: > 100 µM
[4]
  TGI: > 100 µM
[5]
  TGI: > 100 µM
[6]
  TGI: > 100 µM
[7]
  TGI: > 100 µM
[8]
  TGI: > 100 µM
[17]
  TGI: > 100 µM
[9]
  TGI: > 100 µM
[10]
  TGI: > 100 µM
[11]
  TGI: > 100 µM
[12]
  TGI: > 100 µM
[13]
  TGI: > 100 µM
[18]
  TGI: > 100 µM
[14]
  TGI: > 100 µM
[16]
  TGI: > 100 µM

## CC1C2(C)OCC(C#N)(C(=N)O2)C1(C#N)C#N (configuration not stated)
[1]
  TGI: 25 µM
[2]
  TGI: 27.8 µM
[3]
  TGI: 74.3 µM
[5]
  TGI: 74.4 µM
[6]
  TGI: > 100 µM
[7]
  TGI: > 100 µM
[8]
  TGI: > 100 µM
[17]
  TGI: 40.4 µM
[9]
  TGI: 51.8 µM
[10]
  TGI: 42.8 µM
[11]
  TGI: 28.4 µM
[12]
  TGI: 85.6 µM
[13]
  TGI: 84.2 µM
[14]
  TGI: > 100 µM
[15]
  TGI: > 100 µM
[16]
  TGI: > 100 µM

## COc1ccc2c(c1)CCC/C2=N\NS(=O)(=O)c1c(C)cc(C)cc1C
[1]
  TGI: > 100 µM
[2]
  TGI: 57.2 µM
[3]
  TGI: 68.1 µM
[4]
  TGI: > 100 µM
[5]
  TGI: 61.8 µM
[6]
  TGI: 55 µM
[7]
  TGI: 41.6 µM
[8]
  TGI: 32.9 µM
[17]
  TGI: 43 µM
[9]
  TGI: 48.8 µM
[10]
  TGI: > 100 µM
[11]
  TGI: > 100 µM
[12]
  TGI: > 100 µM
[13]
  TGI: 85.3 µM
[15]
  TGI: 58.9 µM
[16]
  TGI: > 100 µM

## CSCCCNC(=O)[C@H](CSC)NC(=O)c1csc(CCNC(=O)[C@@H](NSc2ccccc2[N+](=O)[O-])C(C)O)n1 (some centres not stated)
[1]
  TGI: > 100 µM
[2]
  TGI: > 100 µM
[3]
  TGI: > 100 µM
[4]
  TGI: > 100 µM
[5]
  TGI: > 100 µM
[6]
  TGI: > 100 µM
[7]
  TGI: > 100 µM
[8]
  TGI: > 100 µM
[17]
  TGI: > 100 µM
[9]
  TGI: > 100 µM
[10]
  TGI: > 100 µM
[11]
  TGI: > 100 µM
[12]
  TGI: > 100 µM
[13]
  TGI: > 100 µM
[14]
  TGI: > 100 µM
[15]
  TGI: > 100 µM
[16]
  TGI: > 100 µM

## C=CC[C@H](N=C(SC)SC)C(=O)N1C(=O)N(C)[C@@H](C)[C@H]1c1ccccc1
[1]
  TGI: > 100 µM
[2]
  TGI: > 100 µM
[3]
  TGI: > 100 µM
[4]
  TGI: > 100 µM
[5]
  TGI: > 100 µM
[7]
  TGI: > 100 µM
[8]
  TGI: > 100 µM
[17]
  TGI: > 100 µM
[9]
  TGI: > 100 µM
[10]
  TGI: > 100 µM
[11]
  TGI: > 100 µM
[12]
  TGI: > 100 µM
[13]
  TGI: > 100 µM
[14]
  TGI: > 100 µM
[15]
  TGI: > 100 µM
[16]
  TGI: > 100 µM

## Cn1cc(NC(=O)Nc2cc(C(=O)Nc3cc(C(=O)Nc4cc(S(=O)(=O)O)c5cc(S(=O)(=O)O)cc(S(=O)(=O)O)c5c4)n(C)c3)n(C)c2)cc1C(=O)Nc1cc(C(=O)Nc2cc(S(=O)(=O)O)c3cc(S(=O)(=O)O)cc(S(=O)(=O)O)c3c2)n(C)c1
[2]
  TGI: > 100 µM
[3]
  TGI: > 100 µM
[4]
  TGI: > 100 µM
[5]
  TGI: > 100 µM
[6]
  TGI: > 100 µM
[7]
  TGI: > 100 µM
[8]
  TGI: > 100 µM
[9]
  TGI: > 100 µM
[10]
  TGI: > 100 µM
[11]
  TGI: > 100 µM
[12]
  TGI: > 100 µM
[13]
  TGI: > 100 µM
[18]
  TGI: > 100 µM
[14]
  TGI: > 100 µM
[15]
  TGI: > 100 µM
[16]
  TGI: > 100 µM

## O=S(=O)(O)c1ccc2c(N=Nc3ccc(Sc4ccc(N=Nc5c(O)ccc6cc(S(=O)(=O)O)ccc56)cc4)cc3)c(O)ccc2c1
[1]
  TGI: > 100 µM
[2]
  TGI: > 100 µM
[3]
  TGI: > 100 µM
[4]
  TGI: > 100 µM
[5]
  TGI: > 100 µM
[6]
  TGI: > 100 µM
[7]
  TGI: > 100 µM
[8]
  TGI: > 100 µM
[9]
  TGI: > 100 µM
[10]
  TGI: > 100 µM
[11]
  TGI: > 100 µM
[12]
  TGI: > 100 µM
[13]
  TGI: > 100 µM
[18]
  TGI: > 100 µM
[14]
  TGI: > 100 µM
[16]
  TGI: > 100 µM

## COC(=O)c1ccc(NCC2=C(Br)C(=O)C=CC2=O)cc1Cl
[1]
  TGI: 70.6 µM
[2]
  TGI: 31.6 µM
[3]
  TGI: 42.5 µM
[5]
  TGI: > 100 µM
[6]
  TGI: 30.5 µM
[7]
  TGI: > 100 µM
[8]
  TGI: > 100 µM
[17]
  TGI: 28.1 µM
[9]
  TGI: 28.4 µM
[10]
  TGI: 34.8 µM
[11]
  TGI: 26.8 µM
[12]
  TGI: 36.7 µM
[13]
  TGI: 47.1 µM
[18]
  TGI: > 100 µM
[14]
  TGI: > 100 µM
[15]
  TGI: > 100 µM
[16]
  TGI: 34.7 µM
